We go through two molecules from PMC10529921, “Structure–Activity Relationship of Novel ACE Inhibitory Undecapeptides from Stropharia rugosoannulata by Molecular Interactions and Activity Analyses” (Foods, 2023).

The subject of data set [1] is SHR rats. As to the kind of experiment: Antihypertensive effect after single gavage in SHR rats. The class given is in vivo, rat (SHR). The settings on record: n = 6.
Procedure: (§1) Eleven-week-old male SHR rats and Wistar rats (SiPeiFu (Suzhou) Biotechnology Co., Ltd., Suzhou, China) weighing 200–250 g were used. After 7 d of acclimatization feeding, SHR rats and Wistar rats were randomly grouped into 6 rats per group for a single gavage administration treatment. The undecapeptide and the commercial antihypertensive drug Benazepril hydrochloride were administered in a gavage dose of 10 mg/kg body weight (the recommended dose of Benazepril hydrochloride). SHR rats with regular saline treatment were used as the blank control group. The systolic blood pressure (SBP) and diastolic blood pressure (DBP) of rats were monitored by the Softron BP system (Softron BP-2010A, Tokyo, Japan) at 0, 2, 4, 6, 8, and 24 h after drug administration. At the end of the treatment, the organ coefficients were calculated (organ weight as a percentage of the body weight of the rat, mg/g).
(§2) Data from the in vivo tests were presented as means ± standard deviations of 6 measurements.
The subject of data set [2] is SHR rats. The data set is described as follows: Organ coefficients in SHR rats. The settings on record: 10 mg/kg, single gavage. The format is in vivo, rat (SHR).
Procedure: as §1, §2
The next data set has as its system Wistar rats. The settings on record: 10 mg/kg, single gavage; low body weight in two rats given as main reason.
[3] abbreviates: 10 mg/kg, most significant effect at 8 h, mean ± SD.

Molecules are shown by their SMILES. Structures can show the parent of a compound that is named as a salt.

Procedure for Wistar rats: as §1, §2

For the molecule `CCOC(=O)[C@H](CCc1ccccc1)N[C@H]1CCc2ccccc2N(CC(=O)O)C1=O` [Benazepril hydrochloride], the “Blood pressure lowering (SBP and DBP), SHR” value with SHR rats [1] (10 mg/kg, 2, 4, 6 and 8 h) is “better blood pressure lowering effects after 2, 4, 6, and 8 h”. Further, in the data set on SHR rats [1] (setting [3]), the “Decrease in DBP, SHR” value is 39.17 ± 1.81 mmHg and the “Decrease in SBP, SHR” value worked out at 54.94 ± 1.79 mmHg. Moreover, in the data set with SHR rats [1] (10 mg/kg), the “Rebound of blood pressure values, SHR” value is recorded as “began to rebound after 8 h” and the “Time of most significant blood pressure lowering effect, SHR” value is reported as 8 h.

As to `CC(C)C[C@H](NC(=O)[C@@H]1CCCN1C(=O)[C@H](CCCNC(=N)N)NC(=O)[C@H](CC(C)C)NC(=O)[C@H](CCCNC(=N)N)NC(=O)[C@H](CC(=O)O)NC(=O)[C@H](Cc1ccc(O)cc1)NC(=O)[C@H](CC(=O)O)NC(=O)[C@H](CCC(=O)O)NC(=O)[C@H](CCC(N)=O)NC(=O)CN)C(=O)O`, in the data set on SHR rats [2], the “Effect on organs, SHR” value was “less impact on the organs of SHR rats”. Moreover, in the data set on SHR rats [2] (significance p < 0.05), the “Heart organ coefficient vs blank control, SHR” value is reported as “no significant difference”. In addition, the “Kidney organ coefficient, Wistar” value in the data set with Wistar rats is listed as “considerably higher”.
